The values that follow come from article PMC6689975, “Novel Cell Wall Antifungals Reveal a Special Synergistic Activity in pbr1 Mutants Resistant to the Glucan Synthesis Antifungals Papulacandins and Echinocandins” (Frontiers in Microbiology, 2019).

Common to all, as to assay: microbe, parasite or virus in culture
Assay [1] concerns Candida albicans C. a.^f (Tables 5, 6). Details: species or system yeast; micro tube dilution MIC in YES (± 1.2 M sorbitol), complete growth inhibition by turbidity. As to conditions: 48 h. The protocol: (§1) Standard YEPD (Yeast Extract, Peptone, Dextrose) ([Sherman, 1990]), YEPD+S (YEPD with 1.2M sorbitol), YES (Yeast Extract, Dextrose and Supplements of Adenine, Histidine, Leucine, Uracil and Lysine) ([Alfa et al., 1993]) and YES+S (YES with 1.2 M sorbitol) ([Ribas et al., 1991]; [Ishiguro et al., 1997]), media were used for determination of MIC values of the tested compounds. A stock solution of 10 mg/ml of each tested compounds was prepared in DMSO and serial dilutions in DMSO were prepared. The final concentration of DMSO was 2% in the YEPD medium. […] The serial dilutions of compounds were dispensed into test tubes with 1 ml of YEPD or YEPD+S to make final concentrations of 200, 100, 50, 25, 12.5, 6.26, 3.125, 1.6, 0.8 and 0.4 μg/ml. The tested yeast strains were previously grown in YEPD, YEPD+S, YES or YES+S agar plates at 30°C for 48 h. Micro-culture assays of large numbers of samples were analyzed as described) ([Martins et al., 2011]). Essentially early log-phase cells were grown in YEPD, YEPD+S, YES or YES+S (1.2 M sorbitol) medium at 30°C, and diluted to cell density of 4 X 10^6 cells/ml in YEPD, YEPD+S, YES or YES+S medium and aliquots of 100 μl were dispensed into each small test tube (3 ml test tube size). Then, another 100 μl of YEPD, YEPD+S, YES or YES+S with the corresponding dilution of each compound at 2X concentration (4% DMSO) was added. The final volume was 200 μl, with the cells diluted to of 2 X 10^6 cells/ml and each compound diluted to 1X final concentration, containing increasing concentrations of antifungal (0, 1, 2, 5, 10, 20, 50, 100 and 200 μg/ml) or an equivalent volume of solvent (2% DMSO). The cells were grown at 30°C in an orbital roller and turbidity was analyzed after 24 and 48 h of incubation. The MIC was determined as the minimal concentration of tested compound that produced complete cell growth inhibition and kept the medium clear. The MIC values were calculated from at least three independent experiments.

The subject of assay [2] is T1, Schizosaccharomyces pombe S. p.^a (wild-type 972 h-).
T1 construct: 972 h-
Details: species or system yeast; micro tube dilution MIC in YES (± 1.2 M sorbitol), complete growth inhibition by turbidity. As to conditions: 48 h. The protocol:
as §1

In assay [3] the test system is T2, Saccharomyces cerevisiae S. c.^d (wild-type CVX12-3A).
T2 construct: CVX12-3A
Details: species or system yeast; micro tube dilution MIC in YES (± 1.2 M sorbitol), complete growth inhibition by turbidity. The conditions noted are these: 48 h. How it is done: as §1

In another assay the test system is C. albicans wild-type. Details: species or system whole yeast cells; macro tube broth dilution MIC in YEPD at 30 C, visual clearness of medium. The conditions noted are these: Candida albicans, 48 h, YEPD medium.

SMILES strings stand for the structures. ≈ marks a conversion by molar mass, not a printed value. Where two headings read alike, the source gives them in different places.

`CC[C@H](C)C[C@H](C)CCCCCCCCC(=O)N[C@H]1C[C@@H](O)[C@@H](NCCN)NC(=O)[C@@H]2[C@@H](O)CCN2C(=O)[C@H]([C@H](O)CCN)NC(=O)[C@H]([C@H](O)[C@@H](O)c2ccc(O)cc2)NC(=O)[C@@H]2C[C@@H](O)CN2C(=O)[C@H]([C@@H](C)O)NC1=O` [caspofungin]: the MIC worked out at 50 µg/mL (≈ 45.7 µM) in assay [1] (read-out: MIC), 10 µg/mL (≈ 9.15 µM) in assay [2] (read-out: MIC) and 0.5 µg/mL (≈ 0.457 µM) in assay [3] (read-out: MIC).

Consider `O=c1oc2ccc3ccccc3c2cc1-c1ccccc1CO` [compound 12], for which the MIC (against C. albicans wild-type (C. albicans strain f); with C. albicans wild-type (C. albicans strain g); with C. albicans wild-type (C. albicans strain h); in assay [1] (YES + 1.2 M sorbitol); in assay [2] (YES + 1.2 M sorbitol); in assay [3] (YES + 1.2 M sorbitol)) was greater than 200 µg/mL in each case.

Consider `O=c1oc2ccccc2cc1-c1ccccc1CO` [compound 15], for which the MIC was greater than 100 µg/mL against C. albicans wild-type (C. albicans strain f); greater than 100 µg/mL in the assay with C. albicans wild-type (C. albicans strain g); greater than 100 µg/mL with C. albicans wild-type (C. albicans strain h); greater than 200 µg/mL in assay [1] (YES + 1.2 M sorbitol); greater than 200 µg/mL in assay [2] (YES + 1.2 M sorbitol); greater than 200 µg/mL in assay [3] (YES + 1.2 M sorbitol).
